According to ChEMBL document CHEMBL1131832, “Synthesis and pharmacological activity of diarylindole derivatives. Cytotoxic agents based on combretastatins” (Bioorg Med Chem Lett, 1999):

Assays:
P388 = assay: Antineoplastic activity against P-388 (murine lymphoid neoplasm) cell line.; format: functional, cell-based; conditions: Mus musculus
A549 = assay: Antineoplastic activity against A-549 (human lung carcinoma) cell line.; format: functional, cell-based
HT-29 = assay: Antineoplastic activity against HT-29 (human colon adenocarcinoma) cell line.; format: functional, cell-based
SK-MEL-28 = assay: Antineoplastic activity against SK-MEL-28 (human melanoma) cell line.; format: functional, cell-based
OVCAR-3 = assay: Compound was evaluated for cytostatic activity against OVCAR-3 ovarian cancer cell line; format: functional; conditions: Homo sapiens
HL-60 = assay: Compound was evaluated for cytostatic activity against the HL-60(TB) leukemia cell line; format: functional; conditions: Homo sapiens
COLO 205 = assay: Compound was evaluated for cytostatic activity against COLO 205 colon cancer cell line; format: functional; conditions: Homo sapiens
RPMI-8226 = assay: Compound was evaluated for cytostatic activity against the RPMI-8226 leukemia cell line; format: functional; conditions: Homo sapiens
SF-539 = assay: Compound was evaluated for cytostatic activity against SF-539 CNS cancer cell line; format: functional; conditions: Homo sapiens
SNB-19 = assay: Compound was evaluated for cytostatic activity against SNB-19 CNS cancer cell line; format: functional; conditions: Homo sapiens
SF-295 = assay: Compound was evaluated for cytostatic activity against SF-295 CNS cancer cell line; format: functional; conditions: Homo sapiens
SK-MEL-5 = assay: Compound was evaluated for cytostatic activity against SK-MEL-5 melanoma cell line; format: functional; conditions: Homo sapiens
HCT-116 = assay: Compound was evaluated for cytostatic activity against […] colon cancer cell line; format: functional; conditions: Homo sapiens
NCI-H522 = assay: Compound was evaluated for cytostatic activity against NCI-H522 non-small cell lung cancer cell line; format: functional; conditions: Homo sapiens
[1] = read-out: Log LC50 (the source's name) (converted)

Structure (SMILES) | IC50 (P388) [µM] | IC50 (A549) [µM] | IC50 (HT-29) [µM] | IC50 (SK-MEL-28) [µM] | also measured
COc1cc(CC(O)c2ccoc2)cc(OC)c1OC (stereo not given) | 36.3 | 72.4 | 72.4 | 72.4 | –
COc1ccc2[nH]c(-c3ccoc3)c(-c3cc(OC)c(OC)c(OC)c3)c2c1 | 3.24 | 3.24 | 3.24 | 3.24 | –
COc1ccc2[nH]c(-c3ccc(C)o3)c(-c3cc(OC)c(OC)c(OC)c3)c2c1 | 5.13 | 5.13 | 6.46 | 5.13 | –
COc1cc(CC(O)c2ccco2)cc(OC)c1OC (stereo not given) | 18.2 | 36.3 | 36.3 | 36.3 | –
COc1cc(CCc2ccc3ccccc3c2)cc(OC)c1OC | – | – | – | 0.302 | –
COc1cc(CC(=O)c2ccoc2)cc(OC)c1OC | 7.24 | 7.24 | 7.24 | 7.24 | –
COc1cc(CCc2ccc(C)o2)cc(OC)c1OC | 7.24 | 7.24 | 7.24 | 7.24 | –
COc1ccc2[nH]c(-c3ccc4ccccc4c3)c(-c3cc(OC)c(OC)c(OC)c3)c2c1 | 1.12 | 1.12 | 2.24 | 1.12 | –
COc1cc(CC(O)c2ccc3c(c2)OCO3)cc(OC)c1OC (stereo not given) | > 100 | > 100 | > 100 | > 100 | –
COc1cc(CCc2ccc3c(c2)OCO3)cc(OC)c1OC | – | – | – | 6.31 | –
COc1cc(CC(=O)c2ccco2)cc(OC)c1OC | > 100 | > 100 | > 100 | > 100 | –
COc1ccc2[nH]c(-c3ccc4c(c3)OCO4)c(-c3cc(OC)c(OC)c(OC)c3)c2c1 | 2.29 | 6.31 | 6.31 | 6.31 | –
COc1cc(CCc2ccoc2)cc(OC)c1OC | > 100 | > 100 | > 100 | > 100 | –
COc1cc(CCc2ccco2)cc(OC)c1OC | 19.1 | 19.1 | 19.1 | 19.1 | –
COc1cc(CC(O)c2ccc3ccccc3c2)cc(OC)c1OC (stereo not given) | 2.95 | 2.95 | 2.95 | 2.95 | –
COc1ccc2[nH]c(-c3ccco3)c(-c3cc(OC)c(OC)c(OC)c3)c2c1 | 0.708 | 1.32 | 1.32 | – | GI50 (OVCAR-3): 0.17 µM; CC50 (OVCAR-3; [1]): 7.24 µM; GI50 (HL-60): 0.0513 µM; CC50 (HL-60; [1]): > 100 µM; GI50 (COLO 205): 0.186 µM; CC50 (COLO 205; [1]): 0.676 µM; GI50 (RPMI-8226): 0.0912 µM; CC50 (RPMI-8226; [1]): 75.9 µM; GI50 (SF-539): 0.117 µM; CC50 (SF-539; [1]): 0.933 µM; GI50 (SNB-19): 0.0229 µM; CC50 (SNB-19; [1]): 0.977 µM; GI50 (SF-295): 0.138 µM; CC50 (SF-295; [1]): 23.4 µM; GI50 (SK-MEL-5): 0.245 µM; CC50 (SK-MEL-5; [1]): 28.8 µM; GI50 (HCT-116): 0.138 µM; CC50 (HCT-116; [1]): 2.51 µM; GI50 (NCI-H522): 0.0759 µM; CC50 (NCI-H522; [1]): 3.39 µM
COc1cc(CC(=O)c2ccc3ccccc3c2)cc(OC)c1OC | 15.1 | 15.1 | 30.2 | 15.1 | –
COc1cc(CC(=O)c2ccc(C)o2)cc(OC)c1OC | 8.71 | 17.4 | 17.4 | 8.71 | –
